Assay results as given in US8415475B2, “Antibacterial quinoline derivatives” (Janssen Pharmaceutica N.V., priority 2006, dated 2013).
≈ marks a conversion by molar mass, not a printed value.

Legend:
[1] = test system: Mycobacterium tuberculosis (strain H37RV); experiment: In-vitro method for testing compounds against M. tuberculosis; assay type: cell-based; settings: 90% inhibitory concentration for bacterial growth, 7 days, Middlebrook broth, resazurin fluorescence; for IC90: Mycobacterium tuberculosis, H37RV, 168 h, read-out: IC90 values MTB 1 H37RV
M. Smegmatis (ATCC607) = experiment: In-vitro anti-bacterial activity against strain M. smegmatis ATCC607; assay type: cell-based; settings: 90% inhibitory concentration for bacterial growth, Alamar Blue fluorescence; for IC90: Mycolicibacterium smegmatis, ATCC607, 48 h, read-out: IC90 values MSM 1 ATCC607; for IC90 values MSM 1 ATCC607: 48 hours
Procedure: D.2. In-Vitro Method for Testing Compounds for Anti-Bacterial Activity Against Strain M. smegmatis ATCC607. Flat-bottom, sterile 96-well plastic microtiter plates were filled with 180 μl of sterile deionized water, supplemented with 0.25% BSA. Subsequently, stock solutions (7.8× final test concentration) of compounds were added in 45 μl volumes to a series of duplicate wells in column 2 so as to allow evaluation of their effects on bacterial growth. Serial five-fold dilutions (45 μl in 180 μl) were made directly in the microtiter plates from column 2 to 11 using a customised robot system (Zymark Corp., Hopkinton, Mass.). Pipette tips were changed after every 3 dilutions to minimize pipetting errors with high hydrophobic compounds. Untreated control samples with (column 1) and without (column 12) inoculum were included in each microtiter plate. Approximately 250 CFU per well of bacteria inoculum, in a volume of 100 μl in 2.8× Mueller-Hinton broth medium, was added to the rows […]. The same volume of broth medium without inoculum was added to column 12 in row A to H. The cultures were incubated at 37° C. for 48 hours in a humidified 5% CO2 atmosphere (incubator with open air valve and continuous ventilation). At the end of incubation, two days after inoculation, the bacterial growth was quantitated fluorometrically. Therefore Alamar Blue (10×) was added to all wells in a volume of 20 μl and plates were incubated for another 2 hours at […] The fluorescence was read in a computer-controlled fluorometer (Cytofluor, Biosearch) at an excitation wavelength of 530 nm and an emission wavelength of 590 nm (gain 30).

[2] = test system: Staphylococcus aureus (ATCC29213); experiment: In-vitro anti-bacterial microtitre plate assay, IC90, S. aureus; assay type: cell-based; settings: 90% inhibitory concentration for bacterial growth, resazurin fluorescence; for IC90: Staphylococcus aureus, ATCC29213, 24 h, read-out: IC90 values STA 1 B29213; for IC90 values STA 1 B29213: 24 hours
Procedure: (§1) D.3. In-Vitro Method for Testing Compounds for Anti-Bacterial Activity Against Various Non-Mycobacterial Strains The bacteria used in this study were grown overnight in flasks containing 100 ml Mueller-Hinton Broth (Becton Dickinson-cat. no. 275730) in sterile de-ionized water, with shaking, at 37° C. Stocks (0.5 ml/tube) were stored at -70° C. until use. Bacteria titrations were performed in microtiter plates to detect the TCID50, in which the TCID50 represents the dilution that gives rise to bacterial growth in 50% of inoculated cultures. In general, an inoculum level of approximately 100 TCID50 was used for susceptibility testing. Flat-bottom, sterile 96-well plastic microtiter plates were filled with 180 μl of sterile deionized water, supplemented with 0.25% BSA. Subsequently, stock solutions (7.8× final test concentration) of compounds were added in 45 μl volumes in column 2. Serial five-fold dilutions (45 μl in 180 μl) were made directly in the microtiter plates from column 2 to reach column 11. Untreated control samples with (column 1) and without (column 12) inoculum were included in each microtiter plate. Depending on the bacteria type, approximately 10 to 60 CFU per well of bacteria inoculum (100 TCID50), in a volume of 100 μl in 2.8× Mueller-Hinton broth medium, was added to the rows […]. The same volume of broth medium without inoculum was added to column 12 in row A to H. The cultures were incubated at 37° C. for 24 hours under a normal atmosphere (incubator with open air valve and continuous ventilation). At the end of incubation, one day after inoculation, the bacterial growth was quantitated fluorometrically. Therefore resazurin (0.6 mg/ml) was added in a volume of 20 μl to all wells 3 hours after inoculation, and the plates were re-incubated overnight. A change in colour from blue to pink indicated the growth of bacteria. The fluorescence was read in a computer-controlled fluorometer (Cytofluor Biosearch) at an excitation wavelength of 530 nm and an emission wavelength of 590 nm. The % growth inhibition achieved by the compounds was calculated according to standard methods.

[3] = test system: Streptococcus pneumoniae (ATCC6305); experiment: In-vitro anti-bacterial microtitre plate assay, IC90, S. pneumoniae; assay type: cell-based; settings: 90% inhibitory concentration for bacterial growth, resazurin fluorescence; for IC90: Streptococcus pneumoniae, ATCC6305, 24 h, read-out: IC90 values SPN 1 6305; for IC90 values SPN 1 6305: 24 hours
Procedure: as §1

[4] = test system: Streptococcus pyogens (ATCC8668); experiment: In-vitro anti-bacterial microtitre plate assay, IC90, S. pyogens; assay type: cell-based; settings: 90% inhibitory concentration for bacterial growth, resazurin fluorescence; for IC90 values SPY 8668: 24 hours; for IC90: Streptococcus, ATCC8668, 24 h, read-out: IC90 values SPY 8668
Procedure: as §1

[5] = test system: Escherichia coli (ATCC35218); experiment: In-vitro anti-bacterial microtitre plate assay, IC90, E. coli; assay type: cell-based; settings: 90% inhibitory concentration for bacterial growth, resazurin fluorescence; for IC90 values ECO 35218: 24 hours; for IC90: Escherichia coli, ATCC35218, 24 h, read-out: IC90 values ECO 35218
Procedure: as §1

[6] = test system: Enterococcus faecalis (ATCC29212); experiment: In-vitro anti-bacterial microtitre plate assay, IC90, E. faecalis; assay type: cell-based; settings: 90% inhibitory concentration for bacterial growth, resazurin fluorescence; for IC90 values EFA 29212: 24 hours; for IC90: Enterococcus faecalis, ATCC29212, 24 h, read-out: IC90 values EFA 29212
Procedure: as §1

[7] = test system: Pseudomonas aeruginosa (ATCC27853); experiment: In-vitro anti-bacterial microtitre plate assay, IC90, P. aeruginosa; assay type: cell-based; settings: 90% inhibitory concentration for bacterial growth, resazurin fluorescence; for IC90: Pseudomonas aeruginosa, ATCC27853, 24 h, read-out: IC90 values PAE 27853; for IC90 values PAE 27853: 24 hours
Procedure: as §1

| SMILES | melting point | IC90 [1] | IC90 (M. Smegmatis (ATCC607)) | IC90 [2] | IC90 [3] | IC90 values SPY 8668 [4] | IC90 values ECO 35218 [5] | IC90 values EFA 29212 [6] | IC90 values MSM 1 ATCC607 (M. Smegmatis (ATCC607)) | IC90 values STA 1 B29213 [2] | IC90 values SPN 1 6305 [3] | IC90 [7] | IC90 [5] | IC90 values PAE 27853 [7] | IC90 values MTB 1 H37RV [1] | IC90 [4] | IC90 [6] |
| --- | --- | --- | --- | --- | --- | --- | --- | --- | --- | --- | --- | --- | --- | --- | --- | --- | --- |
| COc1nc2ccc(C(=O)N3CCN(C)CC3)cc2cc1C(c1ccccc1)C(O)(CCN(C)C)c1cccc2ccccc12 (single isomer, unassigned) [Compound 31] | 195 °C | 4.8 µg/mL (≈ 7.96 µM) | 0.4 µg/mL (≈ 0.664 µM) | 38 µg/mL (≈ 63 µM) | 10.7 µg/mL (≈ 17.8 µM) |  |  |  |  |  |  |  |  |  |  |  |  |
| COc1nc2ccc(N3CCOCC3)cc2cc1C(c1ccccc1)C(O)(CCN(C)C)c1ccccc1 (single isomer, unassigned) [Compound 36] | 190 °C |  |  |  |  | 40.6 µg/mL (≈ 79.3 µM) | 51.2 µg/mL (≈ 100 µM) | 51.2 µg/mL (≈ 100 µM) | 8.1 µg/mL (≈ 15.8 µM) | 51.2 µg/mL (≈ 100 µM) | 51.2 µg/mL (≈ 100 µM) |  |  |  |  |  |  |
| C/C=C/c1ccc2nc(OC)c(C(c3ccccc3)C(O)(CCN(C)C)c3cccc4ccccc34)cc2c1 (single isomer, unassigned) [Compound 11] | 190 °C |  |  |  |  | 51.67 µg/mL (≈ 100 µM) |  | 51.67 µg/mL (≈ 100 µM) | 0.01 µg/mL (≈ 0.0194 µM) | 51.7 µg/mL (≈ 100 µM) | 1.8 µg/mL (≈ 3.48 µM) | 51.7 µg/mL (≈ 100 µM) |  |  |  |  |  |
| CO/N=C/c1ccc2nc(OC)c(C(c3ccccc3)C(O)(CCN(C)C)c3cccc4ccccc34)cc2c1 (single isomer, unassigned) [Compound 25] | 228 °C |  | 0.3 µg/mL (≈ 0.562 µM) |  |  | 8.46 µg/mL (≈ 15.9 µM) |  | 8.46 µg/mL (≈ 15.9 µM) |  | 8.5 µg/mL (≈ 15.9 µM) | 2.1 µg/mL (≈ 3.94 µM) |  | 53.4 µg/mL (≈ 100 µM) | 8.46 µg/mL (≈ 15.9 µM) | 1.7 µg/mL (≈ 3.19 µM) |  |  |
| C=Cc1ccc2nc(OC)c(C(c3ccccc3)C(O)(CCN(C)C)c3cccc4ccccc34)cc2c1 (single isomer, unassigned) [Compound 8] |  | 3.6 µg/mL (≈ 7.16 µM) |  |  |  |  |  |  |  | 50.3 µg/mL (≈ 100 µM) | 2.0 µg/mL (≈ 3.98 µM) | 44.8 µg/mL (≈ 89.1 µM) | 50.3 µg/mL (≈ 100 µM) |  |  | 50.3 µg/mL (≈ 100 µM) | 50.3 µg/mL (≈ 100 µM) |
| COc1nc2ccc(CN)cc2cc1C(c1ccccc1)C(O)(CCN(C)C)c1cccc2ccccc12 (stereo not drawn) [Compound 19] |  |  |  | 8 µg/mL (≈ 15.8 µM) | 1.8 µg/mL (≈ 3.56 µM) |  | 40.17 µg/mL (≈ 79.4 µM) | 40.17 µg/mL (≈ 79.4 µM) | 1.6 µg/mL (≈ 3.16 µM) |  |  | 8.01 µg/mL (≈ 15.8 µM) |  |  | 8.0 µg/mL (≈ 15.8 µM) | 8.01 µg/mL (≈ 15.8 µM) |  |
| COc1nc2ccc(N)cc2cc1C(c1ccccc1)C(O)(CCN(C)C)c1cccc2ccccc12 (single isomer, unassigned) [Compound 15] | 205 °C |  |  |  |  |  |  |  | 0.3 µg/mL (≈ 0.61 µM) | 7.8 µg/mL (≈ 15.9 µM) | 7.8 µg/mL (≈ 15.9 µM) |  |  |  | 1.6 µg/mL (≈ 3.25 µM) |  |  |
| CO/N=C/c1ccc2nc(OC)c(C(c3ccccc3)C(O)(CCN(C)C)c3cccc4ccccc34)cc2c1 (single isomer, unassigned) [Compound 26] | 170 °C |  |  |  |  | 53.37 µg/mL (≈ 100 µM) | 53.37 µg/mL (≈ 100 µM) | 53.37 µg/mL (≈ 100 µM) | 0.3 µg/mL (≈ 0.562 µM) | 53.4 µg/mL (≈ 100 µM) | 18.9 µg/mL (≈ 35.4 µM) |  |  | 53.37 µg/mL (≈ 100 µM) | 8.5 µg/mL (≈ 15.9 µM) |  |  |
| COc1nc2ccc(CNC(C)=O)cc2cc1C(c1ccccc1)C(O)(CCN(C)C)c1cccc2ccccc12 (single isomer, unassigned) [Compound 27] | 203 °C | 21.8 µg/mL (≈ 39.8 µM) | 4.4 µg/mL (≈ 8.03 µM) | 34.6 µg/mL (≈ 63.2 µM) | 8.7 µg/mL (≈ 15.9 µM) |  |  |  |  |  |  |  |  |  |  |  |  |
| C=Cc1ccc2nc(OC)c(C(c3ccccc3)C(O)(CCN(C)C)c3cccc4ccccc34)cc2c1 (stereo not drawn) [Compound 9] |  | 0.2 µg/mL (≈ 0.398 µM) | 0.003 µg/mL (≈ 0.00597 µM) | 50.3 µg/mL (≈ 100 µM) | 0.3 µg/mL (≈ 0.597 µM) |  |  |  |  |  |  | 50.3 µg/mL (≈ 100 µM) | 50.3 µg/mL (≈ 100 µM) |  |  | 50.3 µg/mL (≈ 100 µM) | 50.3 µg/mL (≈ 100 µM) |
| COc1nc2ccc(CN)cc2cc1C(c1ccccc1)C(O)(CCN(C)C)c1cccc2ccccc12 (stereo not drawn) [Compound 18] |  |  |  |  |  | 6.37 µg/mL (≈ 12.6 µM) | 8.01 µg/mL (≈ 15.8 µM) | 17.94 µg/mL (≈ 35.5 µM) | 0.4 µg/mL (≈ 0.791 µM) | 8.0 µg/mL (≈ 15.8 µM) | 3.6 µg/mL (≈ 7.12 µM) |  |  | 8.01 µg/mL (≈ 15.8 µM) | 1.6 µg/mL (≈ 3.16 µM) |  |  |
| COc1nc2ccc(/C=N/O)cc2cc1C(c1ccccc1)C(O)(CCN(C)C)c1cccc2ccccc12 (single isomer, unassigned) [Compound 23] | 187 °C | 7.3 µg/mL (≈ 14 µM) |  |  |  |  |  |  | 0.3 µg/mL (≈ 0.577 µM) | 6.5 µg/mL (≈ 12.5 µM) | 0.3 µg/mL (≈ 0.577 µM) | 8.24 µg/mL (≈ 15.9 µM) | 52 µg/mL (≈ 100 µM) |  |  | 8.24 µg/mL (≈ 15.9 µM) | 18.4 µg/mL (≈ 35.5 µM) |
| COc1nc2ccc(N3CCOCC3)cc2cc1C(c1ccccc1)C(O)(CCN(C)C)c1cccc2ccccc12 (single isomer, unassigned) [Compound 30] | 210 °C | 8.9 µg/mL (≈ 15.8 µM) | 0.1 µg/mL (≈ 0.178 µM) | 44.6 µg/mL (≈ 79.4 µM) | 14.1 µg/mL (≈ 25.1 µM) |  |  |  |  |  |  | 22.4 µg/mL (≈ 39.8 µM) | 56.2 µg/mL (≈ 100 µM) |  |  | 44.6 µg/mL (≈ 79.4 µM) | 44.6 µg/mL (≈ 79.4 µM) |
| COc1nc2ccc(N3CCOCC3)cc2cc1C(c1ccccc1)C(O)(CCN(C)C)c1ccccc1 (single isomer, unassigned) [Compound 5] |  |  |  | 40.6 µg/mL (≈ 79.3 µM) |  |  |  |  | 0.04 µg/mL (≈ 0.0782 µM) |  | 9.1 µg/mL (≈ 17.8 µM) |  | 51.2 µg/mL (≈ 100 µM) |  |  | 40.6 µg/mL (≈ 79.4 µM) | 40.6 µg/mL (≈ 79.4 µM) |
